Measured values as given in patent publication US8618054B2, “Interleukin-1 receptor antagonists, compositions, and methods of treatment” (Valorisation-Rechereche Société en Commandite, priority 2004, dated 2013).
Marks after values point to notes of the source that are not given here. Blank lines part the entries; values can stand above or below the molecule they belong to. Where a SMILES comes first, the peptide text is derived from it. Where no end group is shown, it is not given here. [ ]: non-standard residue; d: D form.

Experiments:
[1] = TNBS-induced inflammatory bowel disease rat model, Example 6 (48 h; MPO, macroscopic, histologic); assay type: in vivo; set-up: macroscopic evaluation (median score): scale not given here
Method: Colon inflammation was induced by intra-rectal/colon administration of the hapten trinitrobenzene sulphonic acid (TNBS) on male Sprague-Dawley rats (175-200 g) (Bouma, Nature Rev, 2003; Morris, Gastroenterology, 1989). Animals were anesthetized with isoflurane and TNBS dissolved in 50% ethanol (vol/vol). 120 mg/ml (TNBS) was administered into the colon (total volume of 0.25 ml per rat) using a polyethylene tube (PE50). The cannula was inserted at 8 cm from the anus and kept in place for at least 15 min after TNBS administration in order to prevent expulsion of the solution. […] A third group (control) was not injected with TNBS. Six days after administration of TNBS, rats were killed by CO2 inhalation. Day 6 was chosen as an endpoint because by day 7 spontaneous tissue regeneration begins and this can mask the therapeutic effect of the tested peptide or peptide derivative. Colon was removed and examined macroscopically (adhesions, ulcerations, discoloration and bleeding) and histologically (neutrophil infiltration, epithelial injury, crypt distortion and ulcerations) (Anthony et al. 1995; Padol et al. 2000; Dieleman, L A, et al. 1997; Torres M I et al. 1999). Two animals per group were studied.
Colon inflammation was induced by intra-rectal/colon administration of the hapten trinitrobenzene sulphonic acid (TNBS) as described in Example 4. Two hours prior to TNBS administration, peptides, peptidomimetics or 0.9% saline were administered intravenously (iv) via the caudal vein (various concentrations of mg/kg/d) (total volume of 0.3 ml). […] A third group (control) was not injected with TNBS. […] Also, these IL-1R antagonists were given twice a day (BID); Remicade® (anti-TNFα) (10 mg/kg) and dexamethasone (0.75 mg/kg) were administered intraperitoneally but only once a day (qd). The intrarectal administration (ir) of 101.10, 101.113 (1 and 2.5 mg/kg), and 5-ASA (50 mg/kg) was done one hour after TNBS administration, and twice a day, except for 5-ASA which is once a day. Finally, 101.10 (1-5 mg/kg) was also administered orally by gavage (po), twice a day. Forty-eight hours after administration of TNBS, rats were killed by CO2 inhalation. Colon was removed and assessed macroscopically (adhesions, ulcerations, discoloration and bleeding) and histologically (neutrophil infiltration, epithelial injury, crypt distortion and ulcerations). One to seven animals per group were studied, according to treatments. Myeloperoxidase (MPO) activity was measured on tissue lysates.

IL-1R/IL-1RacP receptor [2] = molecular target: T1, IL-1R/IL-1RacP receptor (Sus scrofa, UniProt A0A5G2QSI4); experiment: IL-1-induced PGE2 synthesis in piglet brain microvascular endothelial cells; assay type: cell-based, porcine; conditions: for Emax: Table 4, read-out: PGE2 synthesis in endothelial cells (porcine) Emax (%); for inhibition of IL-1-induced PGE2 synthesis, compared with parent API-101: alanine scan peptides 10^−6M, endothelial cells
T1 construct: endogenous in cells; host or cells: piglet brain microvascular endothelial cells
T1 sequence (A0A5G2QSI4 21-572): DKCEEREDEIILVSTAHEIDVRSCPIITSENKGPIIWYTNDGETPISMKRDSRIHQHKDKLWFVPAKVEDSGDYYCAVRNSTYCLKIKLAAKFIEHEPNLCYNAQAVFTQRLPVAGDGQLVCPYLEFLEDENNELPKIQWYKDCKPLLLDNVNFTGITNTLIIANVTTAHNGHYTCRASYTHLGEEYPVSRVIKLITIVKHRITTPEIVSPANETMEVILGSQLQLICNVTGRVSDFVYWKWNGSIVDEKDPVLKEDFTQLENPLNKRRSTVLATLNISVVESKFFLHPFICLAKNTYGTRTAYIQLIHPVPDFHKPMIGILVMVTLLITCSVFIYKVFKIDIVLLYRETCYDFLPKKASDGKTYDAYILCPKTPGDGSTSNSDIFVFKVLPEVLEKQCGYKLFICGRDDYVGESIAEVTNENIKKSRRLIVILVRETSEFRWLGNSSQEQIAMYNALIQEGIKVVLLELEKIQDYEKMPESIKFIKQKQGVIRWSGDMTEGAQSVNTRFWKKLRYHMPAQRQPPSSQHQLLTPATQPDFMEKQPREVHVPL
Method: (§1) It is well known in the art that IL-1 induces the synthesis of prostaglandin E2 (PGE2) in endothelial cells and/or chondrocytes in vitro. Therefore, human chondrocytes and piglet brain microvascular endothelial cells were pre-incubated 45-60 minutes at 37° C. with peptide API-101 (^10−6M) and human IL-1 (10 ng/ml) was added in the growing medium. After 24 hours of incubation, growth medium was collected and evaporated. PGE2 measurement was determined by RIA assay with a commercial kit (Cederlane).

IL-1R/IL-1RacP receptor [3] = molecular target: T2, IL-1R/IL-1RacP receptor (Homo sapiens, UniProt P14778); experiment: IL-1β-induced proliferation in TF-1 cells; assay type: cell-based; set-up: endogenous in cells; host or cells: TF-1 cells
T2 sequence (P14778 18-569): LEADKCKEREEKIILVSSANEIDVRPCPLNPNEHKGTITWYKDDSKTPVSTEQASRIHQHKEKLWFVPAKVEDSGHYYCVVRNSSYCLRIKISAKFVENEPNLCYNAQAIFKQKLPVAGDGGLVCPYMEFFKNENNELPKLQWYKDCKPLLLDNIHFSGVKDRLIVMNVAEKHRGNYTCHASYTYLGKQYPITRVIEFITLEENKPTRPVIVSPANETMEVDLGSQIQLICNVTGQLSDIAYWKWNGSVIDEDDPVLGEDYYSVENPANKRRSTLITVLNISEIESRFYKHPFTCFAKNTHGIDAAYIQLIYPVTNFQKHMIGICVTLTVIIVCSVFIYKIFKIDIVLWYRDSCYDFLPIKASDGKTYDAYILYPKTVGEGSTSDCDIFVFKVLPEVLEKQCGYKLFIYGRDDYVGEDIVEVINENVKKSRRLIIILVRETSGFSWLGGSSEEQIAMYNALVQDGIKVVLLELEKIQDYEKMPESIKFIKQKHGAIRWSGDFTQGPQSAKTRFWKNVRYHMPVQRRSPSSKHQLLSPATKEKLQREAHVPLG

IL-1R/IL-1RacP receptor [4] = experiment: Ex vivo vasomotricity: reversal of IL-1β-induced vasodilation of piglet pial vessels; conditions: IL-1β 75 ng/ml
Method: Ex vivo vasomotor response on brain vessels was performed as described (Li et al., 1996; Hou et al., 2000; Hou et al., 2001; Hou et al., 2003). Brains were removed from Yorkshire piglets. Slices of cortex exposing the pial vessels were pinned to a wax base of a 20 ml bath containing Krebs buffer (pH 7.4) equilibrated with 95% O2, 5% CO2 and maintained at 37° C. Microvessels were visualized and recorded using a video camera mounted on a dissecting microscope. Vascular diameter was measured using a digital image analyzer. Vascular diameter was recorded before and after topical application of pre-constricting agent, U46619 (10^−7 M). After stabilization of preparation, the ligand (IL-1β, 75 ng/ml) was added until stable vasodilation was detected. Peptides were subsequently added at different concentrations from 10^−10 to 10^−5 M. Reversal of vasodilatation was visualized and measured as previously described (Hou, et al. 2000; Hou et al. 2001; Hou et al. 2003); triplicate measurements were conducted on 2 animals.

IL-1R/IL-1RacP receptor [5] = molecular target: T2, IL-1R/IL-1RacP receptor; experiment: IL-1-induced PGE2 synthesis in human chondrocytes; assay type: cell-based; set-up: endogenous in cells; conditions: alanine scan peptides 10^−6M
Method: as §1

[6] = Intrarectal administration, 50.0-qd mg/kg/d
[7] = Table 4: TF-1 proliferation and PGE2 synthesis in endothelial cells, derivatives of 101.107
[8] = Table 5, derivatives of 101.113
[9] = Continuous infusion (ip), 8.0 mg/kg/d
[10] = Intermittent injection (ip), 10.0-qd mg/kg/d

Molecule: Nc1ccc(O)c(C(=O)O)c1 [5-ASA, reference compound]
MPO (% of TNBS + Saline) [1, 6]: 49 % of TNBS + Saline
histologic evaluation (median score) [1, 6]: 3.3
macroscopic evaluation (median score) [1, 6]: 1.5

Molecule: CC(C)C[C@@H](NC(=O)[C@@H](CCC(=O)O)NC(=O)[C@H]1CCCN1C(=O)[C@H](NC(=O)[C@@H](Cc1ccc(O)cc1)NC(=O)[C@H](N)CCCCN)[C@H](C)O)C(=O)N[C@H](C)C(N)=O [API-101.114, KYTPELA] (HELM PEPTIDE1{[dK].[dY].[dT].[dP].[dE].[dL].[dA].[am]}$$$$V2.0; N-terminus and C-terminus assumed)
Emax (IL-1R/IL-1RacP receptor [2]): 50%
activity of the peptide, in words (IL-1R/IL-1RacP receptor [3]; [7]): maintains its activity

Molecule: CC(C)C[C@@H](NC(=O)[C@@H](CCC(=O)O)NC(=O)[C@H]1CCCN1C(=O)[C@H](NC(=O)[C@@H](Cc1ccc(O)cc1)NC(=O)[C@H](N)CCCN)[C@H](C)O)C(=O)N[C@H](C)C(N)=O [API-101.115, XYTPELA (X = Ornithine)] (HELM PEPTIDE1{[NCCC[C@@H](N)C(=O)[*:2]].[dY].[dT].[dP].[dE].[dL].[dA].[am]}$$$$V2.0; N-terminus and C-terminus assumed)
activity of the peptide, in words (IL-1R/IL-1RacP receptor [3]; [7]): maintains its activity

Molecule: CC(C)C[C@@H](NC(=O)[C@@H](CCC(=O)O)NC(=O)[C@H]1CCCN1C(=O)[C@H](NC(=O)[C@@H](Cc1c[nH]c2ccccc12)NC(=O)[C@H](N)CCCNC(=N)N)[C@H](C)O)C(=O)N[C@H](C)C(N)=O [API-101.116, RWTPELA] (HELM PEPTIDE1{[dR].[dW].[dT].[dP].[dE].[dL].[dA].[am]}$$$$V2.0; N-terminus and C-terminus assumed)
Emax (IL-1R/IL-1RacP receptor [2]): 45%

Molecule: CC(C)C[C@@H](NC(=O)[C@@H](CC(=O)O)NC(=O)[C@H]1CCCN1C(=O)[C@H](NC(=O)[C@@H](Cc1ccc(O)cc1)NC(=O)[C@H](N)CCCNC(=N)N)[C@H](C)O)C(=O)N[C@H](C)C(N)=O [API-101.117, RYTPDLA] (HELM PEPTIDE1{[dR].[dY].[dT].[dP].[dD].[dL].[dA].[am]}$$$$V2.0; N-terminus and C-terminus assumed)
Emax (IL-1R/IL-1RacP receptor [2]): 100%

Molecule: C[C@@H]1C[C@H]2[C@@H]3CCC4=CC(=O)C=C[C@]4(C)[C@@]3(F)[C@@H](O)C[C@]2(C)[C@@]1(O)C(=O)CO [Dexamethasone, dexamethasone, reference compound]
MPO (% of TNBS + Saline) ([1]; Intermittent injection (ip), 0.75-qd mg/kg/d): 60 % of TNBS + Saline

Molecule: APRATVELA [API-101.3]
reversal of IL-1β-induced vasodilation (IL-1R/IL-1RacP receptor [4]): reversed the vasodilation

Molecule: APRYTAELA [API-101.5]
inhibition of IL-1-induced PGE2 synthesis, compared with parent API-101 (IL-1R/IL-1RacP receptor [2]): lost almost all activity
inhibition of IL-1-induced PGE2 synthesis, compared with parent API-101 (IL-1R/IL-1RacP receptor [5]): lost almost all activity

Molecule: APRYTVEAA [API-101.7]
inhibition of IL-1-induced PGE2 synthesis, compared with parent API-101 (IL-1R/IL-1RacP receptor [2]): lost almost all activity
inhibition of IL-1-induced PGE2 synthesis, compared with parent API-101 (IL-1R/IL-1RacP receptor [5]): lost almost all activity

Molecule: Kineret: natural soluble receptor IL-1Ra mimetic, Anakinra, developed by Amgen [reference compound]
MPO (% of TNBS + Saline) [1, 9]: 63 % of TNBS + Saline
histologic evaluation (median score) [1, 9]: 2 (Small ulcer (<5 crypts))

Molecule: Remicade: anti-TNFα [reference compound]
MPO (% of TNBS + Saline) [1, 10]: 88 ± 41 % of TNBS + Saline
histologic evaluation (median score) [1, 10]: 2.5 (1-3.75)**
macroscopic evaluation (median score) [1, 10]: 0.5

Molecule: XYTPEL (X = Ornithine) [API-101.126]
activity of the peptide, in words (IL-1R/IL-1RacP receptor [3]; [8]): little or no activity

Now from value to molecule:

Emax (IL-1R/IL-1RacP receptor [3]; TF-1, Table 5): 100%
activity of the peptide, in words (IL-1R/IL-1RacP receptor [3]; [8]): relatively decreased
Molecule: CC(C)C[C@@H](NC(=O)[C@@H](CCC(=O)O)NC(=O)[C@H]1CCCN1C(=O)[C@H](NC(=O)[C@@H](Cc1c[nH]c2ccccc12)NC(=O)[C@H](N)CCCNC(=N)N)[C@H](C)O)C(N)=O [API-101.128, RWTPEL]

activity of the peptide, in words (IL-1R/IL-1RacP receptor [3]; [8]): relatively decreased
Molecule: CC(C)C[C@@H](NC(=O)[C@@H](CCC(=O)O)NC(=O)[C@H]1CCCN1C(=O)[C@H](NC(=O)[C@@H](Cc1ccccc1)NC(=O)[C@H](N)CCCNC(=N)N)[C@H](C)O)C(N)=O [API-101.132, RFTPEL] (HELM PEPTIDE1{[dR].[dF].[dT].[dP].[dE].[dL].[am]}$$$$V2.0; N-terminus and C-terminus assumed)

activity of the peptide, in words (IL-1R/IL-1RacP receptor [3]; [8]): little or no activity
Molecule: CC(C)C[C@@H](NC(=O)[C@@H](CCC(=O)O)NC(=O)[C@H]1CCCN1C(=O)[C@H](NC(=O)[C@@H](Cc1ccc(O)cc1)NC(=O)[C@H](N)CCCNC(N)=O)[C@H](C)O)C(N)=O [API-101.134, XYTPEL (X = Citrulline)]

activity of the peptide, in words (IL-1R/IL-1RacP receptor [3]; [8]): lowered but not lost completely
Molecule: CC(C)C[C@@H](NC(=O)[C@@H](CCC(=O)O)NC(=O)[C@H]1CCCN1C(=O)[C@H](NC(=O)[C@@H](Cc1ccc(O)cc1)NC(=O)[C@@H](N)CCCNC(=N)N)[C@H](C)O)C(N)=O [API-101.135, *RYTPEL]

activity of the peptide, in words (IL-1R/IL-1RacP receptor [3]; [8]): little or no activity
Molecule: KYTPEL ([dK][dY][dT][dP][dE][dL]) [API-101.133]

activity of the peptide, in words (IL-1R/IL-1RacP receptor [3]; [8]): completely abolished the activity
Molecule: RFVPELA [API-101.127]

activity of the peptide, in words (IL-1R/IL-1RacP receptor [3]; [7]): completely lost
Molecule: XRYTPELA (X = Acetyl) (Ac-[dR][dY][dT][dP][dE][dL][dA]) [API-101.121]
